Assay: Evaluation of solubility in solvent
Assay type: physicochemical
Conditions: room temperature (25° C.), highest concentration completely dissolved; for Solubility Solvent-4: propylene carbonate; for Solubility Solvent-3: γ-butyrolactone

| Solubility Solvent-4 | Solubility Solvent-3 | Compound |
| --- | --- | --- |
| 2 wt % | 7 wt % | O=c1c2ccccc2sc2ccc(Sc3ccc([S+](c4ccccc4)c4ccc5sc6ccccc6c(=O)c5c4)cc3)cc12 (stereo not drawn) [Comparative Example 2, reference compound] |
| 32 wt % | 23 wt % | O=c1c2ccccc2sc2ccc(Sc3ccc([S+](c4ccccc4)c4ccc5sc6ccccc6c(=O)c5c4)cc3)cc12 (stereo not drawn) [Comparative Example 3, reference compound] |
| 3 wt % | 9 wt % | O=c1c2ccccc2sc2ccc(Sc3ccc([S+](c4ccccc4)c4ccc5sc6ccccc6c(=O)c5c4)cc3)cc12 (stereo not drawn) [Comparative Example 4, reference compound] |
| 12 wt % | 12 wt % | Cc1cccc([S+](c2ccc3sc4ccccc4c(=O)c3c2)c2ccc(Sc3ccc4sc5ccccc5c(=O)c4c3)cc2C)c1 (stereo not drawn) [Example 4, [2-methyl-4-(2-thioxanthonylthio)phenyl](3-methylphenyl) (2-thioxanthonyl)sulfonium Hexafluorophosphate] |
| 32 wt % | 23 wt % | Cc1cccc([S+](c2ccc3sc4ccccc4c(=O)c3c2)c2ccc(Sc3ccc4sc5ccccc5c(=O)c4c3)cc2C)c1 (stereo not drawn) [Example 6, [2-methyl-4-(2-thioxanthonylthio)phenyl](3-methylphenyl) (2-thioxanthonyl)sulfonium tris(pentafluoroethyl) Trifluorophosphate] |
| 15 wt % | 15 wt % | Cc1cccc([S+](c2ccc3sc4ccccc4c(=O)c3c2)c2ccc(Sc3ccc4sc5ccccc5c(=O)c4c3)cc2C)c1 (stereo not drawn) [Example 7, [2-methyl-4-(2-thioxanthonylthio)phenyl](3-methylphenyl) (2-thioxanthonyl)sulfonium Hexafluoroantimonate] |
| 21 wt % | 10 wt % | COc1cccc([S+](c2ccc3sc4ccccc4c(=O)c3c2)c2ccc(Sc3ccc4sc5ccccc5c(=O)c4c3)cc2OC)c1 (stereo not drawn) [Example 12, [2-methoxy-4-(2-thioxanthonylthio)phenyl](3-methoxyphenyl) (2-thioxanthonyl)sulfonium Hexafluorophosphate] |
| 32 wt % | 31 wt % | COc1cccc([S+](c2ccc3sc4ccccc4c(=O)c3c2)c2ccc(Sc3ccc4sc5ccccc5c(=O)c4c3)cc2OC)c1 (stereo not drawn) [Example 14, [2-methoxy-4-(2-thioxanthonylthio)phenyl](3-methoxyphenyl) (2-thioxanthonyl)sulfonium tris(pentafluoroethyl) Trifluorophosphate] |
| 20 wt % | 18 wt % | COc1cccc([S+](c2ccc3sc4ccccc4c(=O)c3c2)c2ccc(Sc3ccc4sc5ccccc5c(=O)c4c3)cc2OC)c1 (stereo not drawn) [Example 15, [2-methoxy-4-(2-thioxanthonylthio)phenyl](3-methoxyphenyl) (2-thioxanthonyl)sulfonium Hexafluoroantimonate] |
| 27 wt % | 25 wt % | CC(C)(C)c1cccc([S+](c2ccc3sc4ccccc4c(=O)c3c2)c2ccc(Sc3ccc4sc5ccccc5c(=O)c4c3)cc2C(C)(C)C)c1 (stereo not drawn) [Example 20, [2-tert-butyl-4-(2-thioxanthonylthio)phenyl](3-tert-butylphenyl) (2-thioxanthonyl)sulfonium Hexafluorophosphate] |
| 33 wt % | 38 wt % | CC(C)(C)c1cccc([S+](c2ccc3sc4ccccc4c(=O)c3c2)c2ccc(Sc3ccc4sc5ccccc5c(=O)c4c3)cc2C(C)(C)C)c1 (stereo not drawn) [Example 22, [2-tert-butyl-4-(2-thioxanthonylthio)phenyl](3-tert-butylphenyl) (2-thioxanthonyl)sulfonium tris(pentafluoroethyl) Trifluorophosphate] |
| 24 wt % | 25 wt % | CC(C)(C)c1cccc([S+](c2ccc3sc4ccccc4c(=O)c3c2)c2ccc(Sc3ccc4sc5ccccc5c(=O)c4c3)cc2C(C)(C)C)c1 (stereo not drawn) [Example 23, [2-tert-butyl-4-(2-thioxanthonylthio)phenyl](3-tert-butylphenyl) (2-thioxanthonyl)sulfonium Hexafluoroantimonate] |
| 25 wt % | 30 wt % | Cc1cc(C)cc([S+](c2ccc3sc4ccccc4c(=O)c3c2)c2c(C)cc(Sc3ccc4sc5ccccc5c(=O)c4c3)cc2C)c1 (stereo not drawn) [Example 28, [2,6-dimethyl-4-(2-thioxanthonylthio)phenyl](3,5-dimethylphenyl) (2-thioxanthonyl)sulfonium Hexafluorophosphate] |
| 33 wt % | 40 wt % | Cc1cc(C)cc([S+](c2ccc3sc4ccccc4c(=O)c3c2)c2c(C)cc(Sc3ccc4sc5ccccc5c(=O)c4c3)cc2C)c1 (stereo not drawn) [Example 30, [2,6-dimethyl-4-(2-thioxanthonylthio)phenyl](3,5-dimethylphenyl) (2-thioxanthonyl)sulfonium tris(pentafluoroethyl) Trifluorophosphate] |
| 23 wt % | 25 wt % | Cc1cc(C)cc([S+](c2ccc3sc4ccccc4c(=O)c3c2)c2c(C)cc(Sc3ccc4sc5ccccc5c(=O)c4c3)cc2C)c1 (stereo not drawn) [Example 31, [2,6-dimethyl-4-(2-thioxanthonylthio)phenyl](3,5-dimethylphenyl) (2-thioxanthonyl)sulfonium Hexafluoroantimonate] |
| 25 wt % | 25 wt % | Cc1ccc(C)c([S+](c2ccc3sc4ccccc4c(=O)c3c2)c2cc(C)c(Sc3ccc4sc5ccccc5c(=O)c4c3)cc2C)c1 (stereo not drawn) [Example 36, [2,5-dimethyl-4-(2-thioxanthonylthio)phenyl](2,5-dimethylphenyl) (2-thioxanthonyl)sulfonium Potassium Hexafluorophosphate] |
| 33 wt % | 40 wt % | Cc1ccc(C)c([S+](c2ccc3sc4ccccc4c(=O)c3c2)c2cc(C)c(Sc3ccc4sc5ccccc5c(=O)c4c3)cc2C)c1 (stereo not drawn) [Example 38, [2,5-dimethyl-4-(2-thioxanthonylthio)phenyl](2,5-dimethylphenyl) (2-thioxanthonyl)sulfonium tris(pentafluoroethyl) Trifluorophosphate] |
| 23 wt % | 29 wt % | Cc1ccc(C)c([S+](c2ccc3sc4ccccc4c(=O)c3c2)c2cc(C)c(Sc3ccc4sc5ccccc5c(=O)c4c3)cc2C)c1 (stereo not drawn) [Example 39, [2,5-dimethyl-4-(2-thioxanthonylthio)phenyl](2,5-dimethylphenyl) (2-thioxanthonyl)sulfonium Hexafluoroantimonate] |
| 31 wt % | 33 wt % | Cc1cc([S+](c2ccc3sc4ccccc4c(=O)c3c2)c2cc(C(C)(C)C)ccc2C)c(C(C)(C)C)cc1Sc1ccc2sc3ccccc3c(=O)c2c1 (stereo not drawn) [Example 44, [2-tert-butyl-5-methyl-4-(2-thioxanthonylthio)phenyl](5-tert-butyl-2-methylphenyl) (2-thioxanthonyl)sulfonium Hexafluorophosphate] |
| 33 wt % | 49 wt % | Cc1cc([S+](c2ccc3sc4ccccc4c(=O)c3c2)c2cc(C(C)(C)C)ccc2C)c(C(C)(C)C)cc1Sc1ccc2sc3ccccc3c(=O)c2c1 (stereo not drawn) [Example 46, [2-tert-butyl-5-methyl-4-(2-thioxanthonylthio)phenyl](5-tert-butyl-2-methylphenyl) (2-thioxanthonyl)sulfonium tris(pentafluoroethyl) Trifluorophosphate] |
| 30 wt % | 33 wt % | Cc1cc([S+](c2ccc3sc4ccccc4c(=O)c3c2)c2cc(C(C)(C)C)ccc2C)c(C(C)(C)C)cc1Sc1ccc2sc3ccccc3c(=O)c2c1 (stereo not drawn) [Example 47, [2-tert-butyl-5-methyl-4-(2-thioxanthonylthio)phenyl](5-tert-butyl-2-methylphenyl) (2-thioxanthonyl)sulfonium Hexafluoroantimonate] |
| 38 wt % | 45 wt % | Cc1ccc(C)c([S+](c2ccc3sc4ccccc4c(=O)c3c2)c2cc(C)c(Oc3ccc4sc5ccccc5c(=O)c4c3)cc2C)c1 (stereo not drawn) [Example 49, [2,5-dimethyl-4-(2-thioxanthonyloxy)phenyl](2,5-dimethylphenyl) (2-thioxanthonyl)sulfonium tris(pentafluoroethyl) Trifluorophosphate] |
| 30 wt % | 40 wt % | Cc1ccc(C)c([S+](c2ccc3sc4ccccc4c(=O)c3c2)c2cc(C)c([S+]([O-])c3ccc4sc5ccccc5c(=O)c4c3)cc2C)c1 (stereo not drawn) [Example 50, [2,5-dimethyl-4-(2-thioxanthonylsulfinyl)phenyl](2,5-dimethylphenyl) (2-thioxanthonyl)sulfonium tris(pentafluoroethyl) Trifluorophosphate] |
| 32 wt % | 40 wt % | Cc1ccc(C)c([S+](c2ccc3sc4ccccc4c(=O)c3c2)c2cc(C)c(S(=O)(=O)c3ccc4sc5ccccc5c(=O)c4c3)cc2C)c1 (stereo not drawn) [Example 51, [2,5-dimethyl-4-(2-thioxanthonylsulfonyl)phenyl](2,5-dimethylphenyl) (2-thioxanthonyl)sulfonium tris(pentafluoroethyl) Trifluorophosphate] |
